Measured values published in patent US11725036B2, “Modified lipidated relaxin B chain peptides and their therapeutic use” (Sanofi, priority 2018, dated 2023).
Starred links: 1 amine or outer side, 2 acyl side, 3 side chain; linkers in the order of their positions; H or OH if unused. Non-standard residues stand in square brackets, D forms with d. Residues, ends and D or L forms follow the SMILES beside them. Groups on a side chain read outwards from the residue. *: point of attachment. X5 = CCCCCCCCCCCCCCCC(=O)N[C@@H](CCC(=O)N[C@@H](CCC(=O)N[C@@H](CCC(=O)NCCCOCCOCCOCCCNC(=O)CCC(=O)NCCCOCCOCCOCCCNC(=O)CCC(=O)NCCCOCCOCCOCCCNC(=O)CCC(=O)NCCCOCCOCCOCCCN*)C(=O)O)C(=O)O)C(=O)O; X1 = CCCCCCCCCCCCCCCC(=O)N[C@@H](CCC(=O)N[C@@H](CCC(=O)N[C@@H](CCC(=O)NCCCOCCOCCOCCCNC(=O)CCC(=O)NCCCOCCOCCOCCCNC(=O)CCC(=O)NCCCOCCOCCOCCCN*)C(=O)O)C(=O)O)C(=O)O; X8 = CCCCCCCCCCCCCCCC(=O)N[C@@H](CCC(=O)N[C@@H](CCC(=O)N[C@@H](CCC(=O)N[C@@H](CCC(=O)NCCCOCCOCCOCCCNC(=O)CCC(=O)NCCCOCCOCCOCCCN*)C(=O)O)C(=O)O)C(=O)O)C(=O)O; Suc = O=C(CCC(=O)[*:2])[*:1]; αMeK = C[C@](N)(CCCCN)C(=O)O; hLys = NCCCCC[C@H](N)C(=O)O; Aib = CC(C)(N)C(=O)O

Biological target: T1, RXFP1 (Homo sapiens, UniProt Q9HBX9)
T1 construct: OVCAR5 cells expressing endogenous RXFP1; endogenous in cells; host or cells: OVCAR5
T1 sequence (Q9HBX9 1-757): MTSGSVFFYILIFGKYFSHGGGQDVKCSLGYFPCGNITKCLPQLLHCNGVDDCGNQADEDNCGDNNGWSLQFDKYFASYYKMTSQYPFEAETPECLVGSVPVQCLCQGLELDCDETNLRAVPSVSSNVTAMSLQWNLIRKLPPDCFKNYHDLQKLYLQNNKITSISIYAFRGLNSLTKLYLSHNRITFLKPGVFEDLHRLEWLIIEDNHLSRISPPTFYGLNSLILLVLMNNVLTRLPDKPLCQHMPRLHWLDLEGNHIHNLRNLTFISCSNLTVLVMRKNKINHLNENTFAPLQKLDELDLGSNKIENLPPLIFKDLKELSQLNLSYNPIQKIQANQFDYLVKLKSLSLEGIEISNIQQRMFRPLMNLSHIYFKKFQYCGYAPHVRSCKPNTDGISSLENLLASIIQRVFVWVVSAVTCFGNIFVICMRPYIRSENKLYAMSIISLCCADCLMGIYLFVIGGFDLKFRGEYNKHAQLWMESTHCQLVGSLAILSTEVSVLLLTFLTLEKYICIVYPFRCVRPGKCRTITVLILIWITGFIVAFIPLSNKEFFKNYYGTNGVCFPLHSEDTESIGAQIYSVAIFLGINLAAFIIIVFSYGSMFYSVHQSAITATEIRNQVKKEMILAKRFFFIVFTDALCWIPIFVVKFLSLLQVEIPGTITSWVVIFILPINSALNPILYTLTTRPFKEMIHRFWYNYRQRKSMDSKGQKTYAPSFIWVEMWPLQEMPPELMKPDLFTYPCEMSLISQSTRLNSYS
Assay: OVCAR5 cAMP assay (HTRF)
Assay type: cell-based
Settings: for EC50: OVCAR 5 cells expressing endogenous RXFP1, cAMP readout; for Emax: OVCAR 5 cells, maximal cAMP relative to H2-relaxin
Summary of the method: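 Peptide agonism measured as intracellular cAMP (HTRF) after 30 min at 37° C in serum-free medium, following 40 min 1 mM IBMX preincubation of OVCAR5 cells. Nonlinear regression gave EC50; Emax % = 100 × compound maximal cAMP / H2-relaxin maximal cAMP.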

EC50	Emax	Compound
0.19 nM	97%	CCCCCCCCCCCCCCCC(=O)N[C@@H](CCC(=O)N[C@@H](CCC(=O)N[C@@H](CCC(=O)NCCCOCCOCCOCCCNC(=O)CCC(=O)NCCCOCCOCCOCCCNC(=O)CCC(=O)NCCCOCCOCCOCCCNC(=O)CCC(=O)NCCCC[C@H](NC(=O)CNC(=O)[C@H](CCC(=O)O)NC(=O)C(C)(C)NC(=O)C(C)(C)NC(=O)[C@@H](NC(=O)[C@H](CCCCNC(C)=O)NC(=O)[C@H](C)NC(=O)[C@H](CCCNC(=N)N)NC(=O)[C@@H](NC(=O)[C@H](CCCCN)NC(=O)[C@H](CCC(=O)O)NC(=O)[C@H](CCCNC(=N)N)NC(=O)CNC(=O)[C@H](CCC(=O)O)NC(=O)[C@H](CC(C)C)NC(C)=O)C(C)C)[C@@H](C)CC)C(=O)N[C@@H](CO)C(=O)N[C@H](C(=O)N[C@@H](Cc1ccccc1)C(=O)N[C@@H](CO)C(=O)N[C@@](C)(CCCCN)C(=O)N[C@@H](CCCNC(=N)N)C(=O)N[C@@H](C)C(=O)N[C@@H](CCCCN)C(N)=O)[C@@H](C)O)C(=O)O)C(=O)O)C(=O)O [compound 49] (Ac-LEGREKVRAK(Ac)I[Aib][Aib]EGK([Suc-X1])STFS[αMeK]RAK-NH2)
0.62 nM	88%	CCCCCCCCCCCCCCCC(=O)N[C@@H](CCC(=O)N[C@@H](CCC(=O)N[C@@H](CCC(=O)NCCCOCCOCCOCCCNC(=O)CCC(=O)NCCCOCCOCCOCCCNC(=O)CCC(=O)NCCCOCCOCCOCCCNC(=O)CCC(=O)NCCCC[C@H](NC(=O)CNC(=O)[C@H](CCC(=O)O)NC(=O)C(C)(C)NC(=O)C(C)(C)NC(=O)[C@@H](NC(=O)[C@H](CCCCNC(C)=O)NC(=O)[C@H](C)NC(=O)[C@H](CCCNC(=N)N)NC(=O)[C@@H](NC(=O)[C@H](CCCCCN)NC(=O)[C@H](CCC(=O)O)NC(=O)[C@H](CCCNC(=N)N)NC(=O)CNC(=O)[C@H](CCC(=O)O)NC(=O)[C@H](CC(C)C)NC(C)=O)C(C)C)[C@@H](C)CC)C(=O)N[C@@H](CO)C(=O)N[C@H](C(=O)N[C@@H](Cc1ccccc1)C(=O)N[C@@H](CO)C(=O)N[C@@](C)(CCCCN)C(=O)N[C@@H](CCCNC(=N)N)C(=O)N[C@@H](C)C(=O)N[C@@H](CCCCNC(C)=O)C(N)=O)[C@@H](C)O)C(=O)O)C(=O)O)C(=O)O [compound 28] (Ac-LEGRE[hLys]VRAK(Ac)I[Aib][Aib]EGK([Suc-X1])STFS[αMeK]RAK(Ac)-NH2)
1.45 nM	97%	CCCCCCCCCCCCCCCC(=O)N[C@@H](CCC(=O)N[C@@H](CCC(=O)N[C@@H](CCC(=O)NCCCOCCOCCOCCCNC(=O)CCC(=O)NCCCOCCOCCOCCCNC(=O)CCC(=O)NCCCOCCOCCOCCCNC(=O)CCC(=O)NCCCC[C@H](NC(=O)CNC(=O)[C@H](CCC(=O)O)NC(=O)C(C)(C)NC(=O)C(C)(C)NC(=O)[C@@H](NC(=O)[C@H](CCCCNC(C)=O)NC(=O)[C@H](C)NC(=O)[C@H](CCCNC(=N)N)NC(=O)[C@@H](NC(=O)[C@H](CCCCN)NC(=O)[C@H](CCC(=O)O)NC(=O)[C@H](CCCNC(=N)N)NC(=O)CNC(=O)[C@H](CCC(=O)O)NC(=O)[C@H](CC(C)C)NC(C)=O)C(C)C)[C@@H](C)CC)C(=O)N[C@@H](CO)C(=O)N[C@@H](CCC(N)=O)C(=O)N[C@@H](Cc1c[nH]c2ccccc12)C(=O)N[C@@H](CO)C(=O)NC(C)(C)C(=O)N[C@@H](CCCNC(=N)N)C(=O)N[C@@H](CCCCN)C(=O)N[C@@H](CCCCNC(C)=O)C(N)=O)C(=O)O)C(=O)O)C(=O)O [compound 63] (Ac-LEGREKVRAK(Ac)I[Aib][Aib]EGK([Suc-X1])SQWS[Aib]RKK(Ac)-NH2)
0.79 nM	95%	CCCCCCCCCCCCCCCC(=O)N[C@@H](CCC(=O)N[C@@H](CCC(=O)N[C@@H](CCC(=O)N[C@@H](CCC(=O)NCCCOCCOCCOCCCNC(=O)CCC(=O)NCCCOCCOCCOCCCNC(=O)CCC(=O)NCCCC[C@H](NC(=O)CNC(=O)[C@H](CCC(=O)O)NC(=O)C(C)(C)NC(=O)C(C)(C)NC(=O)[C@@H](NC(=O)[C@H](CCCCNC(C)=O)NC(=O)[C@H](C)NC(=O)[C@H](CCCNC(=N)N)NC(=O)[C@@H](NC(=O)[C@H](CCCCN)NC(=O)[C@H](CCC(=O)O)NC(=O)[C@H](CCCNC(=N)N)NC(=O)CNC(=O)[C@H](CCC(=O)O)NC(=O)[C@H](CC(C)C)NC(C)=O)C(C)C)[C@@H](C)CC)C(=O)N[C@@H](CO)C(=O)N[C@H](C(=O)N[C@@H](Cc1ccccc1)C(=O)N[C@@H](CO)C(=O)N[C@@](C)(CCCCN)C(=O)N[C@@H](CCCNC(=N)N)C(=O)N[C@@H](C)C(=O)N[C@@H](CCCCNC(C)=O)C(N)=O)[C@@H](C)O)C(=O)O)C(=O)O)C(=O)O)C(=O)O [compound 10] (Ac-LEGREKVRAK(Ac)I[Aib][Aib]EGK([Suc-X8])STFS[αMeK]RAK(Ac)-NH2)

The next lines start with the compound.

Compound	EC50	Emax
CCCCCCCCCCCCCCCC(=O)N[C@@H](CCC(=O)N[C@@H](CCC(=O)N[C@@H](CCC(=O)NCCCOCCOCCOCCCNC(=O)CCC(=O)NCCCOCCOCCOCCCNC(=O)CCC(=O)NCCCOCCOCCOCCCNC(=O)CCC(=O)NCCCOCCOCCOCCCNC(=O)CCC(=O)NCCCC[C@H](NC(=O)CNC(=O)[C@H](CCC(=O)O)NC(=O)C(C)(C)NC(=O)C(C)(C)NC(=O)[C@@H](NC(=O)[C@H](CCCCNC(C)=O)NC(=O)[C@H](C)NC(=O)[C@H](CCCNC(=N)N)NC(=O)[C@@H](NC(=O)[C@H](CCCNC(=N)N)NC(=O)[C@H](CCC(=O)O)NC(=O)[C@H](CCCNC(=N)N)NC(=O)CNC(=O)[C@H](CCC(=O)O)NC(=O)[C@H](CC(C)C)NC(C)=O)C(C)C)[C@@H](C)CC)C(=O)N[C@@H](CO)C(=O)N[C@H](C(=O)N[C@@H](Cc1ccccc1)C(=O)N[C@@H](CO)C(=O)NC(C)(C)C(=O)N[C@@H](CCCNC(=N)N)C(=O)N[C@@H](CCCNC(=N)N)C(=O)N[C@@H](CCCCNC(C)=O)C(N)=O)[C@@H](C)O)C(=O)O)C(=O)O)C(=O)O [compound 77] (Ac-LEGRERVRAK(Ac)I[Aib][Aib]EGK([Suc-X5])STFS[Aib]RRK(Ac)-NH2)	0.11 nM	98%
CCCCCCCCCCCCCCCC(=O)N[C@@H](CCC(=O)N[C@@H](CCC(=O)N[C@@H](CCC(=O)NCCCOCCOCCOCCCNC(=O)CCC(=O)NCCCOCCOCCOCCCNC(=O)CCC(=O)NCCCOCCOCCOCCCNC(=O)CCC(=O)NCCCC[C@H](NC(=O)CNC(=O)[C@H](CCC(=O)O)NC(=O)C(C)(C)NC(=O)C(C)(C)NC(=O)[C@@H](NC(=O)[C@H](CCCCNC(C)=O)NC(=O)[C@H](C)NC(=O)[C@H](CCCNC(=N)N)NC(=O)[C@@H](NC(=O)[C@H](CCCCN)NC(=O)[C@H](CCC(=O)O)NC(=O)[C@H](CCCNC(=N)N)NC(=O)CNC(=O)[C@H](CCC(=O)O)NC(=O)[C@H](CC(C)C)NC(C)=O)C(C)C)[C@@H](C)CC)C(=O)N[C@@H](CO)C(=O)N[C@@H](CCCCN)C(=O)N[C@@H](Cc1c[nH]c2ccccc12)C(=O)N[C@@H](CO)C(=O)NC(C)(C)C(=O)N[C@@H](CCCNC(=N)N)C(=O)N[C@@H](CCCCN)C(=O)N[C@@H](CCCCNC(C)=O)C(N)=O)C(=O)O)C(=O)O)C(=O)O [compound 83] (Ac-LEGREKVRAK(Ac)I[Aib][Aib]EGK([Suc-X1])SKWS[Aib]RKK(Ac)-NH2)	0.25 nM	94%
